Data on 18 compounds can be found in patent US9309263B2, “Fused multi-cyclic sulfone compounds as inhibitors of beta-secretase and methods of use thereof” (AMGEN INC., priority 2013, dated 2016).

Assay [1] addresses Beta Secretase enzyme (BACE) (Homo sapiens, UniProt P56817). In words: In vitro enzymatic BACE FRET assay. The assay is classed as biochemical. Conditions: average IC50, in vitro enzymatic BACE FRET assay; read-out: BACE1 FRET assay IC50. An outline of the steps:
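Enzyme (0.2 nM) pre-incubated 1 h with serially diluted inhibitors in 0.05 M acetate pH 4.2, 10% DMSO, 100 uM genapol. Reaction started with 50 nM fluorophore/quencher peptide FRET substrate, run 1 h, stopped with Tris to neutral pH. Fluorescence read at excitation 488 nm, […].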

The target in the next assay is Cathepsin D (Cat D) (Homo sapiens, UniProt P07339). In words: In vitro enzymatic Cathepsin D (Cat D) FRET assay. The assay is classed as biochemical. Particulars: Cathepsin D FRET assay; read-out: CatD IC50. An outline of the steps: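 Recombinant CHO-expressed enzyme (9 nM) pre-incubated 1 h with serially diluted inhibitor in 0.05 M citrate pH 3.5, 10% DMSO final, 5 mM CHAPS. Reaction started with 20 nM FRET peptide substrate, run 1 h, stopped with Tris to neutral pH; fluorescence read at ex 500/em 580 nm.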
Cathepsin D (Cat D), sequence (P07339 65-412, species assumed): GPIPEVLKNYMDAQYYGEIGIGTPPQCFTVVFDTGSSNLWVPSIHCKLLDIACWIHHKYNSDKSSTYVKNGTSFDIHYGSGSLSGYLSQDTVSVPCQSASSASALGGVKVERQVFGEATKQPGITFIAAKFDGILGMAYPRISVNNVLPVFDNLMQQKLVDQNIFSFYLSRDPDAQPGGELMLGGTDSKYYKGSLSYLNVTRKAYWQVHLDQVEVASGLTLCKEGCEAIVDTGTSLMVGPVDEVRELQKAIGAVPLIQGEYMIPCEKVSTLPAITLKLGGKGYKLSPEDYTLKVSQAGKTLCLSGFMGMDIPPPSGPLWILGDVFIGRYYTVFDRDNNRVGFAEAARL

In assay [2] the test system is Aβ 40 in conditioned medium of cells stably expressing Amyloid Precursor Protein (APP). In words: In vitro BACE cell-based assay (Aβ 40 sandwich ELISA). Conditions: Homo sapiens, HEK293; average IC50, HEK cell assay, Aβ 40 readout. An outline of the steps:
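APP-expressing cells, 24 h pre-culture in DMEM/10% FBS, treated 24 h with 10-point compound dilutions from 100 or 10 μM top, 0.1% DMSO final. Secreted Aβ40 quantified by sandwich ELISA (pAb40 capture, biotinylated 6E10 detection, europium TRF); IC50 from percent inhibition versus concentration.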

Where only a bound is given, the exact number is not on record here.

Beta Secretase enzyme (BACE), sequence (P56817 46-501): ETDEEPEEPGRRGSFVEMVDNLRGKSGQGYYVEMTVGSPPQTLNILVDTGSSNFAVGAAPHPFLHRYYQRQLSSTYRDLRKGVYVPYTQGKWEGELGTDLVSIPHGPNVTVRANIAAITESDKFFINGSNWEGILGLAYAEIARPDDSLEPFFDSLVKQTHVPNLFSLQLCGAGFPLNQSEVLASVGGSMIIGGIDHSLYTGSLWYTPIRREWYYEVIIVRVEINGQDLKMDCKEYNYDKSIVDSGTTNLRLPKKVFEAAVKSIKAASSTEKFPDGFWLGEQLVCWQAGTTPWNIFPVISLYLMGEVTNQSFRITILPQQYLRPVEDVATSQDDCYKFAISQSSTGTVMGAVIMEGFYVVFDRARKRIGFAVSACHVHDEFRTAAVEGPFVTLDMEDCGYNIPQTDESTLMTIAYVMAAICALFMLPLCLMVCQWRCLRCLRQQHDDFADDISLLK

For `CC1(C)C(N)=N[C@]2(CF)c3cc(NC(=O)c4cnc(C(F)(F)F)cn4)ccc3OCC[C@H]2S1(=O)=O` [Example 121, N-((4aR,11bS)-2-amino-11b-(fluoromethyl)-3,3-dimethyl-4,4-dioxido-4a,5,6,11b-tetrahydro-3H-[1]benzoxepino[4,5-b][1,4]thiazin-10-yl)-5-(trifluoromethyl)-2-pyrazinecarboxamide], the IC50 in assay [1] turned out to be 0.184 µM; on Cathepsin D (Cat D), 995 µM; in assay [2] it was 0.21 µM.
In the same order, the values of `CC1(C)C(N)=N[C@]2(CF)c3cc(NC(=O)c4ccc(OC(F)F)cn4)ccc3OCC[C@@H]2S1(=O)=O` [Example 122, N-((4aS,11bS)-2-amino-11b-(fluoromethyl)-3,3-dimethyl-4,4-dioxido-4a,5,6,11b-tetrahydro-3H-[1]benzoxepino[4,5-b][1,4]thiazin-10-yl)-5-(difluoromethoxy)-2-pyridinecarboxamide] are 0.011 µM, 1030 µM and 0.013 µM.
For `CC1(C)C(N)=N[C@]2(CF)c3cc(NC(=O)c4ccc(OC(F)F)cn4)ccc3OCC[C@H]2S1(=O)=O` [Example 123, N-((4aR,11bS)-2-amino-11b-(fluoromethyl)-3,3-dimethyl-4,4-dioxido-4a,5,6,11b-tetrahydro-3H-[1]benzoxepino[4,5-b][1,4]thiazin-10-yl)-5-(difluoromethoxy)-2-pyridinecarboxamide], the IC50 came out at 0.019 µM in assay [1], 4100 µM at Cathepsin D (Cat D) and 0.033 µM in assay [2].
In the same order, the values of `Cc1cc(Cl)cnc1C(=O)Nc1ccc2c(c1)[C@@]1(C)N=C(N)C(C)(C)S(=O)(=O)[C@@H]1CCS2(=O)=O` [Example 124, N-((4aR,11bR)-2-amino-3,3,11b-trimethyl-4,4,7,7-tetraoxido-4a,5,6,11b-tetrahydro-3H-benzo[6,7]thiepino[4,5-b][1,4]thiazin-10-yl)-5-chloro-3-methylpicolinamide] are 0.006 µM, above 1.65 µM and 0.008 µM.
The matching figures for `CC1(C)C(N)=N[C@]2(C)c3cc(NC(=O)c4ccc(OCC#N)cn4)ccc3OCC[C@H]2S1(=O)=O` [Example 126, N-((4aR,11bR)-2-amino-3,3,11b-trimethyl-4,4-dioxido-4a,5,6,11b-tetrahydro-3H-[1]benzoxepino[4,5-b][1,4]thiazin-10-yl)-5-(cyanomethoxy)-2-pyridinecarboxamide]: 0.017 µM, above 1.65 µM and 0.034 µM.
The matching figures for `CC1(C)C[C@@H]2[C@](C)(N=C(N)C(C)(C)S2(=O)=O)c2cc(NC(=O)c3ncc(Cl)cc3Cl)ccc2O1` [Example 128, N-((4aR,11bR)-2-amino-3,3,6,6,11b-pentamethyl-4,4-dioxido-4a,5,6,11b-tetrahydro-3H-[1]benzoxepino[4,5-b][1,4]thiazin-10-yl)-3,5-dichloro-2-pyridinecarboxamide]: 0.008 µM, 593 µM and 0.003 µM.
Consider `C[C@H]1C[C@@H]2[C@](C)(N=C(N)C(C)(C)S2(=O)=O)c2cc(NC(=O)c3ncc(Cl)cc3CO)ccc2O1` [Example 130, N-((4aR,6S,11bR)-2-amino-3,3,6,11b-tetramethyl-4,4-dioxido-4a,5,6,11b-tetrahydro-3H-benzo[6,7]oxepino[4,5-b][1,4]thiazin-10-yl)-5-chloro-3-(hydroxymethyl)picolinamide], for which the IC50 in assay [1] was determined as 0.003 µM; at Cathepsin D (Cat D), 44.8 µM; in assay [2], 0.0008 µM.
The matching figures for `C[C@H]1C[C@@H]2[C@](C)(N=C(N)C(C)(C)S2(=O)=O)c2cc(Nc3nccc4cc(C(F)(F)F)cnc34)ccc2O1` [Example 131, (4aR,6S,11bR)-2-amino-3,3,6,11b-tetramethyl-10-((3-(trifluoromethyl)-1,7-naphthyridin-8-yl)amino)-4a,5,6,11b-tetrahydro-3H-benzo[6,7]oxepino[4,5-b][1,4]thiazine 4,4-dioxide]: 0.005 µM, 443 µM and 0.005 µM.
The matching figures for `Cc1cc(C(F)(F)F)cnc1C(=O)Nc1ccc2c(c1)[C@@]1(C)N=C(N)C(C)(C)S(=O)(=O)[C@@H]1CCS2` [Example 132, N-((4aR,11bR)-2-amino-3,3,11b-trimethyl-4,4-dioxido-4a,5,6,11b-tetrahydro-3H-[1]benzothiepino[4,5-b][1,4]thiazin-10-yl)-3-methyl-5-(trifluoromethyl)-2-pyridinecarboxamide]: 0.002 µM, 357 µM and 0.0008 µM.
The matching figures for `Cc1cnc(COc2cnc3c(Nc4ccc5c(c4)[C@@]4(C)N=C(N)C(C)(C)S(=O)(=O)[C@@H]4C[C@H](C)O5)nccc3n2)o1` [Example 134, (4aR,6S,11bR)-3,3,6,11b-tetramethyl-N^~10^~-(2-((5-methyl-1,3-oxazol-2-yl)methoxy)pyrido[3,4-b]pyrazin-5-yl)-4a,5,6,11b-tetrahydro-3H-[1]benzoxepino[4,5-b][1,4]thiazine-2,10-diamine 4,4-dioxide]: 0.003 µM, above 44.4 µM and 0.003 µM.
Take `CCCOc1cnc2c(Nc3ccc4c(c3)[C@@]3(C)N=C(N)C(C)(C)S(=O)(=O)[C@@H]3C[C@H](C)O4)nccc2n1` [Example 135, (4aR,6S,11bR)-3,3,6,11b-tetramethyl-N^~10^~-(2-propoxypyrido[3,4-b]pyrazin-5-yl)-4a,5,6,11b-tetrahydro-3H-[1]benzoxepino[4,5-b][1,4]thiazine-2,10-diamine 4,4-dioxide]: the IC50 in assay [1] turned out to be 0.026 µM; on Cathepsin D (Cat D), 104 µM; in assay [2], 0.139 µM.
The matching figures for `C[C@H]1C[C@@H]2[C@](C)(N=C(N)C(C)(C)S2(=O)=O)c2cc(Nc3nccc4nc(O)cnc34)ccc2O1` [Example 136, 5-(((4aR,6S,11bR)-2-amino-3,3,6,11b-tetramethyl-4,4-dioxido-4a,5,6,11b-tetrahydro-3H-[1]benzoxepino[4,5-b][1,4]thiazin-10-yl)amino)pyrido[3,4-b]pyrazin-2(1H)-one]: 0.025 µM, 247 µM and 0.016 µM.
On to `Cc1cc(COc2cnc3c(Nc4ccc5c(c4)[C@@]4(C)N=C(N)C(C)(C)S(=O)(=O)[C@@H]4C[C@H](C)O5)nccc3n2)on1` [Example 137, (4aR,6S,11bR)-3,3,6,11b-tetramethyl-N^~10^~-(2-((3-methyl-5-isoxazolyl)methoxy)pyrido[3,4-b]pyrazin-5-yl)-4a,5,6,11b-tetrahydro-3H-[1]benzoxepino[4,5-b][1,4]thiazine-2,10-diamine 4,4-dioxide], for which the IC50 was 0.018 µM in assay [1], above 133 µM on Cathepsin D (Cat D) and 0.091 µM in assay [2].
In the same order, the values of `COCCOc1cnc2c(Nc3ccc4c(c3)[C@@]3(C)N=C(N)C(C)(C)S(=O)(=O)[C@@H]3C[C@H](C)O4)nccc2n1` [Example 139, (4aR,6S,11bR)-N^~10^~-(2-(2-methoxyethoxy)pyrido[3,4-b]pyrazin-5-yl)-3,3,6,11b-tetramethyl-4a,5,6,11b-tetrahydro-3H-[1]benzoxepino[4,5-b][1,4]thiazine-2,10-diamine 4,4-dioxide] are 0.007 µM, 304 µM and 0.008 µM.
In the same order, the values of `C#CCOc1cnc2c(Nc3ccc4c(c3)[C@@]3(C)N=C(N)C(C)(C)S(=O)(=O)[C@@H]3CC(C)(C)O4)nccc2n1` [Example 141, (4aR,11bR)-3,3,6,6,11b-pentamethyl-N^~10^~-(2-(2-propyn-1-yloxy)pyrido[3,4-b]pyrazin-5-yl)-4a,5,6,11b-tetrahydro-3H-[1]benzoxepino[4,5-b][1,4]thiazine-2,10-diamine 4,4-dioxide] are 0.004 µM, 385 µM and 0.017 µM.
The matching figures for `C#CCOc1cnc(C(=O)Nc2ccc3c(c2)[C@@]2(C)N=C(N)C(C)(C)S(=O)(=O)[C@@H]2C[C@H](C)O3)cn1` [Example 142, N-((4aR,6S,11bR)-2-amino-3,3,6,11b-tetramethyl-4,4-dioxido-4a,5,6,11b-tetrahydro-3H-[1]benzoxepino[4,5-b][1,4]thiazin-10-yl)-5-(2-propyn-1-yloxy)-2-pyrazinecarboxamide]: 0.001 µM, 215 µM and 0.0005 µM.
For `C#CCOc1cnc(C(=O)Nc2ccc3c(c2)[C@@]2(C)N=C(N)C(C)(C)S(=O)(=O)[C@@H]2CC(C)(C)O3)cn1` [Example 143, N-((4aR,11bR)-2-Amino-3,3,6,6,11b-pentamethyl-4,4-dioxido-4a,5,6,11b-tetrahydro-3H-benzo[6,7]oxepino[4,5-b][1,4]thiazin-10-yl)-5-(prop-2-yn-1-yloxy)pyrazine-2-carboxamide], the IC50 in assay [1] was determined as 0.002 µM; at Cathepsin D (Cat D), 202 µM; in assay [2] it was 0.0005 µM.
For `C[C@H]1C[C@@H]2[C@](C)(N=C(N)C(C)(C)S2(=O)=O)c2cc(NC(=O)c3ccc(OCc4ncco4)cn3)ccc2O1` [Example 144, N-((4aR,6S,11bR)-2-amino-3,3,6,11b-tetramethyl-4,4-dioxido-4a,5,6,11b-tetrahydro-3H-[1]benzoxepino[4,5-b][1,4]thiazin-10-yl)-5-(1,3-oxazol-2-ylmethoxy)-2-pyridinecarboxamide], the IC50 in assay [1] was 0.004 µM; at Cathepsin D (Cat D) it was 564 µM; in assay [2], 0.003 µM.
